The values that follow come from ChEMBL document CHEMBL1148014, “Antileukotrienic N-arylethyl-2-arylacetamides in the treatment of ulcerative colitis” (Eur J Med Chem, 2007).

The conditions of series [1]: octanol/water.
Description: Lipophilicity, log K of the compound
Another series has as its target Leukotriene B4 receptor (Homo sapiens, UniProt Q9NPC1+Q15722).
For the next series, the species on record is Rattus norvegicus. The series is described as follows: animal or person. To be noted: read-out: Inhibition.
A further series can be described thus: physchem. The settings on record: octanol/water.
Series [2] is filed under the species Mus musculus. The series is described as follows: animal or person. To be noted: po, read-out: Inhibition.
The species entered for series [3] is Mus musculus. The series is described as follows: Antiinflammatory activity against dextran sodium sulfate-induced ulcerative colitis in BALB/c mouse assessed as stool consistency. It is filed as functional, organism-based.
For series [4], the species on record is Mus musculus. The series is described as follows: Antiinflammatory activity against dextran sodium sulfate-induced ulcerative colitis in BALB/c mouse assessed as large intestinal bleeding. It is filed as functional, organism-based.
The species entered for series [5] is Mus musculus. Put plainly: animal or person. The settings on record: po, read-out: Inhibition. This is another data set of the same source.
In series [6] the test system is Mus musculus. Put plainly: Stimulation of hyperaemia in mouse at 200 mg/kg, po. The series is classed as functional.

Structures are written as SMILES. Calls of active or inactive are those of the source. The calls are words filed in the database; no cut-off is given here.

Description for Leukotriene B4 receptor: Displacement of [3H]LTB4 from LTB4 receptor in guinea pig spleen membrane
Description for physchem: Partition coefficient, log P of the compound

With `COc1cc(CC(=O)O)ccc1OCCCCOc1ccc(CC(=O)N(C)CCc2ccccc2)cc1`, in [1], the “log K” value was 0.12. The IC50 at Leukotriene B4 receptor turned out to be 8600 nM. Further, the inhibition in vivo at 100 mg/kg in the series filed under Rattus norvegicus worked out at 0%. Moreover, the logP in “physchem” stood at 5.22. In addition, the inhibition in vivo at 200 mg/kg in the series listed under Mus musculus [2] came to 21%.

In the case of `Cc1cccc(CCN(C)C(=O)Cc2ccc(OCCCCOc3ccc(CC(=O)O)cc3)cc2)c1`, in series [1], the “log K” value was 0.47. Moreover, on Leukotriene B4 receptor, the IC50 came out at 1100 nM. For the same compound, in the series listed under Rattus norvegicus, the inhibition in vivo at 100 mg/kg is 14%. In “physchem”, this compound returned a logP of 6.2. For the same compound, the inhibition in vivo at 200 mg/kg in the series listed under Mus musculus [2] amounted to 44%.

Take `COc1cc(CC(=O)O)ccc1OCCCOc1ccc(CC(=O)N(C)CCc2ccc(Br)cc2)cc1`: the “log K” value in [1] was 0.193. Besides, the inhibition in vivo at 100 mg/kg in the series listed under Rattus norvegicus was 3%. The logP in the series “physchem” was found to be 5.62. Besides, the inhibition in vivo at 200 mg/kg in the series listed under Mus musculus [2] amounted to 38%.

Regarding `COc1cc(CC(=O)O)ccc1OCCCOc1ccc(CC(=O)N(C)CCc2ccccc2)cc1`, the “log K” value in series [1] is 0.013. The compound also returned an IC50 on Leukotriene B4 receptor of 67000 nM. In addition, the logP in “physchem” stood at 4.73. In addition, the inhibition in vivo at 200 mg/kg in the series filed under Mus musculus [2] was 14%.

`CN(CCc1ccccc1)C(=O)Cc1ccc(OCCCCOc2ccc(CC(=O)O)cc2Cl)cc1`: the “log K” value in [1] worked out at 0.364. Further, the IC50 at Leukotriene B4 receptor stood at 1200 nM. In addition, the inhibition in vivo at 100 mg/kg in the series listed under Rattus norvegicus was 32%. The compound also registered a logP in the series “physchem” of 6.3. The outcome in the series listed under Mus musculus [3] and in the series listed under Mus musculus [4] was inactive. Also, in the series filed under Mus musculus [2], the inhibition in vivo at 200 mg/kg was determined as 23%.

In the case of `CC(c1cc2ccccc2s1)N(O)C(N)=O` (stereo not given) [ZILEUTON], the inhibition in vivo at 200 mg/kg in the series filed under Mus musculus [5] turned out to be 13%. For the same compound, the inhibition in vivo at 100 mg/kg in the series listed under Rattus norvegicus is 46%.

Take `CN(CCc1ccccc1)C(=O)Cc1ccc(OCCCOc2ccc(CC(=O)O)cc2)cc1`: the “log K” value in [1] was found to be 0.166. This compound yielded an IC50 at Leukotriene B4 receptor of 18000 nM. The inhibition in vivo at 100 mg/kg in the series listed under Rattus norvegicus came to 39%. Further, the logP in the series “physchem” amounted to 5.16. Moreover, the inhibition in vivo at 200 mg/kg in the series listed under Mus musculus [2] was determined as 20%.

With `Cc1ccc(CCN(C)C(=O)Cc2ccc(OCCCCOc3ccc(CC(=O)O)cc3)cc2)cc1`, the “log K” value in series [1] is given as 0.471. At Leukotriene B4 receptor, this compound returned an IC50 of 660 nM. The same compound had a logP in the series “physchem” of 6.2. Further, in the series filed under Mus musculus [2], the inhibition in vivo at 200 mg/kg came out at 20%.

With `COc1cc(CC(=O)O)ccc1OCCCCOc1ccc(CC(=O)N(C)CCc2ccc(Br)cc2)cc1`, in [1], the “log K” value stood at 0.354. Moreover, the IC50 against Leukotriene B4 receptor worked out at 1900 nM. In the series filed under Rattus norvegicus, the inhibition in vivo at 100 mg/kg worked out at 27%. The compound also gave a logP in “physchem” of 6.11. Further, the outcome in the series filed under Mus musculus [3] and in the series filed under Mus musculus [4] was Active. The inhibition in vivo at 200 mg/kg in the series filed under Mus musculus [2] was 38%.

`CN(CCc1ccccc1)C(=O)Cc1ccc(OCCCOc2ccc(CC(=O)O)cc2Cl)cc1`: in series [1], the “log K” value worked out at 0.253. The same compound gave an IC50 against Leukotriene B4 receptor of 2400 nM. Further, the inhibition in vivo at 100 mg/kg in the series filed under Rattus norvegicus worked out at 12%. The logP in the series “physchem” was 5.81. Moreover, in the series filed under Mus musculus [2], the inhibition in vivo at 200 mg/kg amounted to 20%.

With `COc1cc(CC(=O)O)ccc1OCCCCOc1ccc(CC(=O)NCCc2ccccc2)cc1`, the “log K” value in [1] is on record as -0.079. Further, the logP in the series “physchem” was 5.01. Moreover, in the series on Mus musculus [6], the Activity is given as 7.7%. The inhibition in vivo at 200 mg/kg in the series listed under Mus musculus [2] came to 23%.

For `O=C(O)Cc1ccc(OCCCCOc2ccc(CC(=O)NCCc3ccccc3)cc2)cc1`, the “log K” value in series [1] came to 0.089. In addition, in “physchem”, the logP turned out to be 5.44. For the same compound, the inhibition in vivo at 200 mg/kg in the series listed under Mus musculus [2] was determined as 23%.

As for `CN(CCc1ccccc1)C(=O)Cc1ccc(OCCCCOc2ccc(CC(=O)O)cc2)cc1`, the “log K” value in [1] came to 0.287. At Leukotriene B4 receptor, this compound returned an IC50 of 4700 nM. The inhibition in vivo at 100 mg/kg in the series listed under Rattus norvegicus came to 30%. For the same compound, in “physchem”, the logP amounted to 5.65. Besides, the inhibition in vivo at 200 mg/kg in the series listed under Mus musculus [2] amounted to 45%.

Broadly, the IC50 is the midpoint of a concentration-inhibition curve. The low end stands for inhibition by little substance, the high end for a need for much substance. One may read the logP as a log measure of how a compound divides between an organic and an aqueous phase.
